Measured values published in patent US6153190A, “Erythropoietin receptor antibodies” (priority 1997, dated 2000).

Assays:
Assay type in all cases: cell-based
[1] = test system: erythropoietin (Epo); test: Inhibition of Epo-induced proliferation of UT7-Epo cells; details: stated for all three assays
Experimental: An assay for the measurement of Epo activity on the proliferation of UT7Epo cells, which are dependent on Epo for growth [Komatsu et al., Blood, 82:456-464 (1993)] was performed as follows. The Epo used in the experiment is Epogen (2000 U/ml) [Amgen, Thousand Oaks, Calif.], diluted in phosphate buffered saline (PBS) and human serum albumin (HSA) for storage at 4° C. at 200 U/ml. Dilutions of cleaved EpoR or EpoRFc protein samples were made, so that final concentrations ranged from 0.001 to 100 ng/ml.
Samples of either EpoR or EpoRFc were added to wells at 10 ul/well in quadruplicate. Epo (0.2 U/ml) was added to each well. UT7Epo cells (1×10^5 cells/ml) were plated at 100 ul/well. After the plates were incubated at 37° C. for three days, 10 ul/well of ^3 H-thymidine (diluted to […] in IMDM+10% fetal calf serum (FCS)) were added to a final concentration of 10 uCi/ml. Plates were incubated at 37° C. for four hours with ^3 H-thymidine. The 96-well plates were harvested onto glass fiber filters using the Tomtec plate harvester with 10% cold TCA and cold 95% ethanol. Solid scintillant was melted onto the filters and the samples counted. The mean and standard error of quadruplicate samples was determined.
The data were reported as the percent of positive (0.2 U/ml) Epo control and are illustrated in FIG. 1.

[2] = test system: erythropoietin (Epo); test: Inhibition of Epo-induced proliferation of 32D/Epo wt cells; details: stated for all three assays
Experimental: Another assay was performed for the measurement of Epo activity on the proliferation of 32D/Epo wt cells (Miura, O. et al., Mol. Cell. Biol., 13:1788-1795 (1993)). 32D/Epo wt is an IL-3 dependent cell line transfected with the human Epo receptor.
This assay is performed as described in Part A above, with the modification that the each well contains 1 U/ml Epo. The results of this assay are illustrated in FIG. 2.

[3] = test system: erythropoietin (Epo); test: Inhibition of Epo-induced CFU-E colony formation; details: murine bone marrow CFU-E; stated for all three assays
Experimental: A third assay for measuring the ability of Epo to stimulate the differentiation of murine bone marrow cells to hemoglobin producing mature erythrocytes (CFU-E assay) was performed as described below.
Murine bone marrow cells were flushed from the femur of female B2D6F1 mice. The marrow cells (1×10^5 cells/ml final concentration) were mixed with IMDM, 25% FCS (final) and methylcellulose (0.8% final). 0.4 ml cells was plated per well of 24-well TC plate. EpoRFc (40 ul/well) samples were added and Epo (1 U/ml) was added to each well. Plates were incubated at 37° C., 5% CO2, 6% O2 for two days.
CFU-E colonies containing 8 or more red cells were counted. The mean and standard error of triplicate samples were determined and data reported as the percent of the positive (1 U/ml) Epo control. The results of this assay are illustrated in FIG. 3.

Measured: neutralization of the biological activity of Epo

EpoR: monomeric EpoR extracellular domain protein cleaved from EpoRFc with Factor Xa
able to bind, and thereby neutralize: all assays above
